Source: PubChem BioAssay (NCI)
Several values for one entry are separate records, joined by “and”; a condition that tells them apart may be missing. Identical values can stand only once.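 Cells were grown in 96-well plates and exposed to each compound for 48 hours at five concentrations; endpoints were interpolated linearly between bracketing concentrations, or set to the highest concentration if not reached. GI50: concentration for 50% inhibition of growth. TGI marks complete inhibition of growth.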

Tests used:
Assay in all cases: inhibition of tumour cell growth, NCI panel, 48 h
MDA-MB-231 breast = tested on: MDA-MB-231 breast
SK-MEL-28 melanoma = tested on: SK-MEL-28 melanoma
SK-OV-3 ovarian = tested on: SK-OV-3 ovarian
SW-620 colon = tested on: SW-620 colon
U251 CNS = tested on: U251 CNS
UO-31 renal = tested on: UO-31 renal
HL-60(TB) leukemia = tested on: HL-60(TB) leukemia
HS 578T breast = tested on: HS 578T breast
SNB-75 CNS = tested on: SNB-75 CNS
HCC-2998 colon = tested on: HCC-2998 colon

Structure (SMILES)	TGI (MDA-MB-231 breast)	TGI (SK-MEL-28 melanoma)	TGI (SK-OV-3 ovarian)	TGI (SW-620 colon)	TGI (U251 CNS)	TGI (UO-31 renal)	TGI (HL-60(TB) leukemia)	TGI (HS 578T breast)	TGI (SNB-75 CNS)	TGI (HCC-2998 colon)	GI50 (HCC-2998 colon)	GI50 (HL-60(TB) leukemia)	GI50 (SK-MEL-28 melanoma)	GI50 (SK-OV-3 ovarian)	GI50 (SNB-75 CNS)	GI50 (SW-620 colon)	GI50 (U251 CNS)	GI50 (UO-31 renal)	GI50 (MDA-MB-231 breast)
CC(C)(C)[Si](C)(C)OC1/C(=C/C#N)C(n2ccc(=O)[nH]c2=O)OC1CO (stereo not given)	> 100 µM	> 100 µM	> 100 µM	> 100 µM	> 100 µM	> 100 µM	–	–	–	–	–	–	–	–	–	–	–	–	–
O=C(NS(=O)(=O)OCC(Cl)(Cl)Cl)SCCC(F)(F)C(F)(F)C(F)(F)C(F)(F)C(F)(F)C(F)(F)F	61.9 µM	55.7 µM	32.1 µM	38.3 µM	51.8 µM	> 100 µM	51.2 µM	42.1 µM	64.6 µM	–	–	–	–	–	–	–	–	–	–
Cc1ccsc1/C=N/Nc1ccc2ccccc2n1	–	> 100 µM	48 µM	> 100 µM	> 100 µM	> 100 µM	40.1 µM	> 100 µM	> 100 µM	> 100 µM	–	–	–	–	–	–	–	–	–
COc1ccc(C(=O)/C=C/c2ccncc2)cc1OC	24.3 µM	31.7 µM	30.9 µM	–	23.2 µM	28.1 µM	5.02 µM	36.7 µM	26.3 µM	–	–	–	–	–	–	–	–	–	–
COc1ccc(N2C(=O)CS(=O)(=O)C2c2cccc(Oc3ccccc3)c2)cc1 (stereo not given)	7.6 µM	> 100 µM	> 100 µM	> 100 µM	22.1 µM	71.3 µM	> 100 µM	28.5 µM	45.2 µM	–	–	–	–	–	–	–	–	–	–
CCOP(=O)(O)C(C)(C)NC	> 100 µM	> 100 µM	> 100 µM	> 100 µM	> 100 µM	> 100 µM	> 100 µM	> 100 µM	–	> 100 µM	–	–	–	–	–	–	–	–	–
Nc1nc2c(ncn2Cc2ccc(CO)cc2)c(=O)[nH]1	> 100 µM	> 100 µM	> 100 µM	> 100 µM	> 100 µM	> 100 µM	> 100 µM	> 100 µM	> 100 µM	–	–	–	–	–	–	–	–	–	–
COc1ccc(OC)c(N2C(=O)CSC2c2cc(OC)c(OC)c(OC)c2)c1 (stereo not given)	> 100 µM	> 100 µM	> 100 µM	> 100 µM	> 100 µM	> 100 µM	> 100 µM	> 100 µM	–	> 100 µM	–	–	–	–	–	–	–	–	–
O=C(CCc1cc(O)cc(O)c1)NCCc1cc(O)cc(O)c1	> 100 µM	> 100 µM	> 100 µM	> 100 µM	> 100 µM	> 100 µM	–	> 100 µM	> 100 µM	> 100 µM	–	–	–	–	–	–	–	–	–
CCCC(O)C(NC(=O)CCl)C(=O)O (stereo not given)	–	> 100 µM	> 100 µM	> 100 µM	> 100 µM	> 100 µM	> 100 µM	–	> 100 µM	> 100 µM	–	–	–	–	–	–	–	–	–
Cc1ccc(-c2c3c(n(C4OC(CO)C(O)C(O)C4O)c(=S)c2C#N)CC(C)(C)CC3=O)cc1 (stereo not given)	> 100 µM	> 100 µM	–	> 100 µM	> 100 µM	> 100 µM	> 100 µM	> 100 µM	> 100 µM	> 100 µM	–	–	–	–	–	–	–	–	–
CCOC(=O)c1ccc(C(=O)/C(C#N)=C2\CCCN2C)[nH]1	> 100 µM	> 100 µM	–	> 100 µM	> 100 µM	> 100 µM	> 100 µM	> 100 µM	> 100 µM	> 100 µM	–	–	–	–	–	–	–	–	–
CCCCCC(/C=C/C1CCC(=O)C1CC#C[Si](C)(C)C)OCc1ccccc1 (stereo not given)	54.4 µM	> 58 µM	> 100 µM	> 57 µM	40.6 µM	34.3 µM	–	39.6 µM	41.3 µM	48.1 µM	–	–	–	–	–	–	–	–	–
CC12CCC3C(CCC4=CC(O)CCC43C=O)C1(O)CCC2c1ccc(=O)oc1 (stereo not given)	–	0.14 µM and 0.104 µM	0.0404 µM and 0.0713 µM	0.0967 µM and 0.062 µM	0.0292 µM and 0.064 µM	0.127 µM and 0.057 µM	–	–	0.0544 µM and 0.0523 µM	0.0665 µM and 0.22 µM	59.1 nM	50 nM	7.66 nM	50 nM	50 nM	9.09 nM	50 nM	50 nM	–
CC[C@]1(Cc2ccc(OC)c(OC)c2)[C@@H]2C[C@@H](C3OCCO3)ON2O[C@H](OC2CCCC2(c2ccccc2)c2ccccc2)[C@@H]1OC(C)=O (stereo not given in full)	> 100 µM	47.3 µM	> 100 µM	> 100 µM	> 100 µM	37.7 µM	–	–	46.3 µM	–	–	–	–	–	–	–	–	–	–
COc1cc(/C=C/C(=O)O)ccc1C(=O)OCc1ccccc1	–	> 100 µM	> 100 µM	> 100 µM	> 100 µM	> 100 µM	> 100 µM	–	> 100 µM	> 100 µM	–	–	–	–	–	–	–	–	–
COC(=O)c1c(O)ccc2c1c1c(n2Cc2ccc(Cl)cc2Cl)C(=O)c2ccccc2C1	> 100 µM	> 100 µM	> 100 µM	> 100 µM	> 100 µM	> 100 µM	> 100 µM	> 100 µM	58.7 µM	–	–	–	–	–	–	–	–	–	–
CCc1nc2ccc(N=NN(C)C)cc2[nH]1	> 100 µM	> 100 µM	–	> 100 µM	> 100 µM	> 100 µM	–	> 100 µM	> 100 µM	> 100 µM	–	–	–	–	–	–	–	–	–
Cc1c(CNc2ccc(C(=O)NC(CC(=O)O)C(=O)O)cc2)ccc2nc(N)nc(N)c12 (stereo not given)	> 1000 µM	–	–	> 1000 µM	> 1000 µM	> 1000 µM	> 1000 µM	> 1000 µM	–	21.2 µM	–	–	–	–	–	–	226 nM	–	> 1 mM
O=C1NN=C2C=C(c3ccc(Cl)cc3)CC(c3cccc(Cl)c3)C12 (stereo not given)	42.7 µM	–	> 100 µM	> 100 µM	39.9 µM	66.4 µM	49.1 µM	55 µM	–	33.5 µM	–	–	–	–	–	–	–	–	–
COc1cc2c(cc1O)C1C(O)C(O)C=C3CCN(C2)C31 (stereo not given)	–	13.9 µM	22.9 µM	12.6 µM	24.2 µM	9.04 µM	7.53 µM	–	9.69 µM	8.44 µM	–	–	–	–	–	–	–	–	–
CC1(C)OC(=C(C#N)C#N)C(C#N)=C1/C=C/c1ccncc1	4.36 µM	5.43 µM	16.8 µM	4.41 µM	3.65 µM	8.34 µM	–	17.9 µM	8.68 µM	19.5 µM	–	–	–	–	–	–	–	–	–
O=c1c2c(-c3ccccc3)onc2n(-c2ccccc2)c(=O)n1-c1ccccc1	> 100 µM	–	> 100 µM	> 100 µM	> 100 µM	30.4 µM	–	89.8 µM	84.2 µM	33.1 µM	–	–	–	–	–	–	–	–	–
O=C(O)c1cccnc1	> 100 µM	> 100 µM	–	> 100 µM	> 100 µM	> 100 µM	> 100 µM	> 100 µM	> 100 µM	> 100 µM	–	–	–	–	–	–	–	–	–
